Legend:
[1] = assay type: in vivo, human (healthy subjects); details: human, plasma, oral
[2] = cited from earlier work
[3] = cited from earlier work; remark: listed apart in the source
[4] = system: CYP enzymes or transporters; details: in vitro; cited from earlier work
[5] = primary circulating metabolites of ertugliflozin; cited from earlier work
[6] = cited from earlier work; remark: listed apart in the source
[7] = oral radioactive ertugliflozin dose

Row | SMILES | Tmax [1] | half-life [1] | Unmetabolized drug recovered in urine, % of the administered dose [2] | AUC dose proportionality ([2]; dose range of 0.5 to 300 mg) | Median time to maximum plasma concentration (Tmax) ([2]; fed state, oral) | Excretion of radioactivity in feces, % of the dose [2, 7] | Excretion of radioactivity in urine, % of the dose [2, 7] | Biopharmaceutical Classification System class [3] | Inhibition or induction of CYP enzymes or transporters [4] | Pharmacological activity [5] | Excreted in feces [6] | Excreted mostly unmetabolized in urine [6] | Renal clearance [6] | AUC dose dependence ([6]; healthy subjects)
1 | CCOc1ccc(Cc2cc([C@]34OC[C@](CO)(O3)[C@@H](O)[C@H](O)[C@H]4O)ccc2Cl)cc1 [Ertugliflozin] | ~1 h | 11.2 to 13.8 h | 1.5% | increases in a dose‐proportional manner | ~2 h | 40.9% | 50.2% | class 1 | do not inhibit or induce CYP enzymes or transporters | – | – | – | – | –
2 | CCOc1ccc(Cc2cc([C@]34OC[C@](CO)(O3)[C@@H](O)[C@H](O[C@@H]3O[C@H](C(=O)O)[C@@H](O)[C@H](O)[C@H]3O)[C@H]4O)ccc2Cl)cc1 [M5c, 3‐O‐β glucuronide] | – | – | – | – | – | – | – | – | – | pharmacologically inactive | – | – | – | –
3 | N[C@@H](CC(=O)N1CCn2c(nnc2C(F)(F)F)C1)Cc1cc(F)c(F)cc1F [Sitagliptin] | 2.2 to 4 h | 11.2 to 12.5 h | – | – | – | – | – | class 1 | – | – | 13% | 87% | approximately 388 mL/min | increases in an approximately dose‐dependent manner

Source: paper PMC6851892 (Clinical Pharmacology in Drug Development, 2019)
